Measured values from ChEMBL document CHEMBL4387773, “Identification of potent, selective and orally bioavailable phenyl ((R)-3-phenylpyrrolidin-3-yl)sulfone analogues as RORγt inverse agonists” (Bioorg Med Chem Lett, 2019).

Key:
[1] = biological target: T1, PXR (Homo sapiens, UniProt O75469); assay: Transactivation of PXR (unknown origin) expressed in human HepG2 cells assessed as maximum receptor activation response relative to control; assay type: cell-based; settings: human HepG2 cells that express PXR, read-out: %max
T1 sequence (O75469 whole entry): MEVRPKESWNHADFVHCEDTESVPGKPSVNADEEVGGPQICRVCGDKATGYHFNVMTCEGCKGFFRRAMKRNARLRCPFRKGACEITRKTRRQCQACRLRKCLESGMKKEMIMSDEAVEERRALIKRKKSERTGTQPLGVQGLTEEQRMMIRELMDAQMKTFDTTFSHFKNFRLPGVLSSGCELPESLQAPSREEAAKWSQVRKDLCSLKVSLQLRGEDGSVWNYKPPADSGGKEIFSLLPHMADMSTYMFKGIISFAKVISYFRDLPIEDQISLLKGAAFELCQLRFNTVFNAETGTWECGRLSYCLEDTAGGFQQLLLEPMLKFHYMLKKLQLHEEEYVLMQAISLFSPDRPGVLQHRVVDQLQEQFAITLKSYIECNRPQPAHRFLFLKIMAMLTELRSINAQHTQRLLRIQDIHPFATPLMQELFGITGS

[2] = biological target: T2, Nuclear receptor ROR-alpha (Homo sapiens, UniProt P35398); assay: Inverse agonist activity at human Gal4-fused RORalpha LBD (272 to 556 residues) expressed in human Jurkat cells measured after 18 hrs by steady-glo luciferase reporter gene assay; assay type: cell-based
T2 sequence (P35398 whole entry): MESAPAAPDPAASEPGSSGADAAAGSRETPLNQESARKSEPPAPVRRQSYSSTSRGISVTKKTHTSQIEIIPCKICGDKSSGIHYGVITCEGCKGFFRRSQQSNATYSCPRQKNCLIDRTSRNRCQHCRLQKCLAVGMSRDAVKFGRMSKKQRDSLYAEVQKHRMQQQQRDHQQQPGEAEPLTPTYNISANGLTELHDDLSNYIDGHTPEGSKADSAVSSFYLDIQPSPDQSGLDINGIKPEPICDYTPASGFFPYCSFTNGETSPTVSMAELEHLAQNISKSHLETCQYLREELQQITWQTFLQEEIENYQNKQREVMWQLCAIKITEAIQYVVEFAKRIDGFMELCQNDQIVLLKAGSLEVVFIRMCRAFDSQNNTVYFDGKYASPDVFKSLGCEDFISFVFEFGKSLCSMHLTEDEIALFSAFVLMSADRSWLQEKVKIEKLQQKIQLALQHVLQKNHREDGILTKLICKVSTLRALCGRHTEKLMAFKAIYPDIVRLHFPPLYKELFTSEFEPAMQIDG

[3] = biological target: T3, Oxysterols receptor LXR-alpha (Homo sapiens, UniProt Q13133); assay: Transactivation of human GAL4-fused LXRalpha expressed in African green monkey CV1 cells; assay type: cell-based
T3 sequence (Q13133 whole entry): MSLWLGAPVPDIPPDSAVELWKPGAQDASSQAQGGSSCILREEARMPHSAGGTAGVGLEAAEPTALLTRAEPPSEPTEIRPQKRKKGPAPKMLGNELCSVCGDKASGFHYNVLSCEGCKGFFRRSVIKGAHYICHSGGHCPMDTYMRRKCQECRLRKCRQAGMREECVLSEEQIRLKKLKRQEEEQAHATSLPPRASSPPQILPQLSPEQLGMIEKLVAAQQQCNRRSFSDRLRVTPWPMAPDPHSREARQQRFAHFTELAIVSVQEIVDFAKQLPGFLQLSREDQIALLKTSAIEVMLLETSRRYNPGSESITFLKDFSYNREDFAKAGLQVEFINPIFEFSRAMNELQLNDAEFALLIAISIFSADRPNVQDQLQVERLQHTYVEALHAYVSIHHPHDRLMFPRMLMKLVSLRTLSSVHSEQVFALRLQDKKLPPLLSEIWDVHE

[4] = biological target: T4, Oxysterols receptor LXR-beta (Homo sapiens, UniProt P55055); assay: Transactivation of human GAL4-fused LXRbeta expressed in African green monkey CV1 cells; assay type: cell-based
T4 sequence (P55055 whole entry): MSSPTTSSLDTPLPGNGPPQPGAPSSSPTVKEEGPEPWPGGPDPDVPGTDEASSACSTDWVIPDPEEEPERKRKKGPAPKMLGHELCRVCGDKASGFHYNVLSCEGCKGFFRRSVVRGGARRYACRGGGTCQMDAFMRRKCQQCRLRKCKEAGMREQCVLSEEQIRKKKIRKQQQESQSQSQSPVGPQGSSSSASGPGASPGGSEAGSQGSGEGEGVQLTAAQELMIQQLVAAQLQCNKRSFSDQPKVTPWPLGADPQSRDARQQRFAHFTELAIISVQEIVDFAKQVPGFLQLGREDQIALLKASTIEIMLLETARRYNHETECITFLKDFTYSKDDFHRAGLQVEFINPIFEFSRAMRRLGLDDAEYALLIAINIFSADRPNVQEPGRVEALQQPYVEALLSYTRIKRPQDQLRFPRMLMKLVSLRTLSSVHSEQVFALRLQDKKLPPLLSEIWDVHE

[5] = Permeability in human Caco2 cells; assay type: ADME, cell-based; settings: Caco-2, read-out: permeability
[6] = biological target: Cytochrome P450 2C19 (Homo sapiens, UniProt P33261); assay: Inhibition of CYP2C19 (unknown origin); assay type: ADME
Sequence of Cytochrome P450 2C19 (P33261 whole entry): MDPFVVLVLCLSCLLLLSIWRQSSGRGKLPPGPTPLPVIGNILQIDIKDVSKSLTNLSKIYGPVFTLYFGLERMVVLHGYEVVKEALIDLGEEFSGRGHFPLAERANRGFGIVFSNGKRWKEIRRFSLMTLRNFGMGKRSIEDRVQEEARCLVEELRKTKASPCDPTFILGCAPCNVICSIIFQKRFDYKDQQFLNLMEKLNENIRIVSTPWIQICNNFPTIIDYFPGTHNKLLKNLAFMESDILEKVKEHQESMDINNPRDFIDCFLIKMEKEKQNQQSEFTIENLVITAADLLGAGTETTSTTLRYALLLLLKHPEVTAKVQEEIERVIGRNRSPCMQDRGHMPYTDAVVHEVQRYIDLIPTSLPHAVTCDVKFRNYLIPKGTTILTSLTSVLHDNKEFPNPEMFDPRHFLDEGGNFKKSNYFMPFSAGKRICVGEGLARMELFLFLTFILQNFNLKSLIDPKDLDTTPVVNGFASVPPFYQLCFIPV

| Emax [1] | EC50 [2] | EC50 [3] | EC50 [4] | Papp [5] | IC50 [6] | Structure (SMILES) |
| --- | --- | --- | --- | --- | --- | --- |
| 6% | > 40 µM | > 7.5 µM | > 7.5 µM | 15.3 ×10⁻⁶ cm/s | > 10 µM | CC[C@]1(C(=O)N2CC[C@](c3ccc(C(F)(C(F)(F)F)C(F)(F)F)cc3)(S(=O)(=O)c3ccc(F)cc3)C2)CC[C@H](C(=O)O)CC1 |
| 6% | > 40 µM | > 7.5 µM | > 7.5 µM | 15 ×10⁻⁶ cm/s | > 10 µM | O=C(O)C12CCC(C(=O)N3CC[C@](c4ccc(C(F)(C(F)(F)F)C(F)(F)F)cc4)(S(=O)(=O)c4ccc(F)cc4)C3)(CC1)CC2 |
